These results are taken from PubChem BioAssay AID686967 (The Scripps Research Institute Molecular Screening Center, 2013).

For this test, the target named is methionyl-tRNA synthetase (Trypanosoma brucei brucei). Nature of the test: inhibition of trypanosome methionyl-tRNA synthetase – biochemical, luminescence, dose response, late-stage follow-up (AID 686967). As to conditions: recombinant T. brucei MetRS, luminescence (ATP depletion).

The structures appear in SMILES notation. Active and inactive are the calls of the source. How the calls were made is not given here.

Turning to `O=C(NCc1nc2ccccc2[nH]1)C1=C[C@@H](c2ccccc2)C[C@@H](OCc2ccc(CO)cc2)O1`, the IC50 (commonly the concentration that gives 50% inhibition) was 1580 nM. As for `Oc1c(Cl)cc(Cl)cc1CNc1nc2ccccc2[nH]1`, the figure is 429 nM.

`O=C(NNC(=O)c1ccc(-n2cncn2)c([N+](=O)[O-])c1)c1ccc(Cl)cc1`: the IC50 was 2850 nM. With `O=C(NCc1nc2ccccc2[nH]1)C1=C[C@H](c2ccc3c(c2)OCO3)C[C@H](OCCCCO)O1`, the IC50 is 3040 nM. As for `Cc1ccc(NC(=O)CN(C)C(=O)CCSc2ccc(F)cc2)cc1`, the IC50 is 3470 nM. In the case of `O=C(NCc1nc2ccccc2[nH]1)C1=C[C@@H](c2ccc(Br)cc2)C[C@@H](OCCCCO)O1` it was 674 nM. In the case of `O=C(C[C@H]1C(=O)N(Cc2ccccc2)C[C@@H]1c1ccc(Br)cc1)Nc1ccc(Br)cc1` it was 1950 nM; in that of `CC(C)OCCCN1CC(=O)N2C(c3cccc([N+](=O)[O-])c3)c3[nH]c4ccccc4c3C[C@H]2C1=O` (some centres undefined), 641 nM; in that of `C[C@H](O)[C@@H]1C(=O)N2CCc3c([nH]c4ccccc34)[C@@H]2C[C@@H]1N(C)Cc1ccc2c(c1)OCO2`, 297 nM. In the case of `COc1ccccc1NS(=O)(=O)c1cccc(NC(=O)Nc2ccccc2)c1` it was 600 nM; in that of `O=C(CCC(=O)Nc1cccc([N+](=O)[O-])c1)NN=Cc1cccs1`, 3560 nM; in that of `COc1ccc(CNC(=O)CSc2nnc3c(n2)[nH]c2ccc(F)cc23)cc1`, 755 nM. For `O=C(NCCc1nc2ccccc2[nH]1)c1ccc(Cl)c([N+](=O)[O-])c1`, the IC50 is 148 nM.

Consider `O=C(CC(=O)Nc1cccc(Cl)c1)NN=Cc1ccccc1`, for which the IC50 is 3070 nM. As for `COc1ccc(OCC(O)CNC(=O)Nc2ccc(Cl)cc2)cc1` (centres undefined), the figure is 5540 nM; as for `COc1ccc2[nH]c3nc(SCC(=O)Nc4ccc5c(c4)OCO5)nnc3c2c1`, 603 nM. Take `O=C(NCc1nc2ccccc2[nH]1)C1=C[C@@H](c2ccc3c(c2)OCO3)C[C@@H](OCCCCO)O1`: the IC50 is 1100 nM.

Consider `CC(C)(C)[C@H]1C=C(C(=O)NCc2nc3ccccc3[nH]2)O[C@@H](OCc2ccc(CO)cc2)C1`, for which the IC50 is 2830 nM.

In the case of `O=C(NCc1nc2ccccc2[nH]1)C1=C[C@@H](C2CC2)C[C@@H](OCc2ccc(CO)cc2)O1`, the IC50 is 1500 nM. As for `CN(CC(=O)Nc1ccc(Cl)cc1)C(=O)c1ccc(-n2cncn2)c([N+](=O)[O-])c1`, the IC50 is 845 nM.

In the case of `Clc1ccc(OCCSCc2nc3ccccc3[nH]2)cc1`, the IC50 is 7540 nM. Regarding `CC(C)(C)[C@@H]1C=C(C(=O)NCc2nc3ccccc3[nH]2)O[C@H](OCc2ccc(CO)cc2)C1`, the IC50 was 3390 nM. In the case of `COc1cccc(NC(=O)CSc2nnc3c(n2)[nH]c2ccc(C)cc23)c1` it was 44.1 nM.

`CC(=O)c1ccc(N2CCN(C(=O)CCCn3c(=O)[nH]c4ccc(Br)cc4c3=O)CC2)cc1`: the IC50 is 577 nM. For the compound `O=C(NCc1nc2ccccc2[nH]1)C1=C[C@H](C2CC2)C[C@H](OCc2ccc(CO)cc2)O1`, the IC50 was 6500 nM.

With `COc1ccccc1-n1c(SCC(=O)Nc2ccc(Cl)cc2)nc(O)c(Cc2ccccc2)c1=O`, the IC50 was 3810 nM. As for `O=C(CC=NOCc1ccc([N+](=O)[O-])cc1)Nc1ccc(Cl)cc1`, the IC50 was 1080 nM. In the case of `CCO[C@@H]1OC(C(=O)NCc2nc3ccccc3[nH]2)=C[C@H](c2ccc(Br)cc2)[C@H]1CCCO` it was “inactive”; in that of `CN(Cc1cc(Cl)cc(Cl)c1)[C@H]1C[C@H]2c3[nH]c4ccccc4c3CCN2C(=O)[C@H]1CO`, 586 nM; in that of `O=C(Cn1cnc2ccccc21)Nc1cccc([N+](=O)[O-])c1`, 1300 nM.

On to `O=C(NCc1nc2ccccc2[nH]1)C1=C[C@H](c2ccccc2)C[C@H](OCc2ccc(CO)cc2)O1`, for which the IC50 was 6860 nM. As for `CC(CC(=O)Nc1cccc(Br)c1)=NNC(=O)c1ccc(O)cc1O`, the figure is 949 nM. For `O=C(N/C(=C\c1cccnc1)c1nc2ccccc2[nH]1)c1cccc(Br)c1`, the IC50 was 3200 nM. In the case of `CCOC(=O)N1CCC(Nc2c(Nc3ccc(F)cc3)c(=O)c2=O)CC1` it was 6350 nM. In the case of `O=C(NCc1nc2ccccc2[nH]1)C1=C[C@H](c2csc3ccccc23)C[C@H](OCCCCO)O1` it was 739 nM; in that of `O=C1CC(SCc2nc3ccccc3[nH]2)C(=O)N1c1cccc(Cl)c1` (centres undefined), “inactive”.

Consider `O=C(NCc1nc2ccccc2[nH]1)C1=C[C@H](c2ccc(Br)cc2)C[C@H](OCCCCO)O1`, for which the 50% inhibitory concentration (IC50) is 1580 nM. For the compound `Cc1[nH]c2ccc(Br)cc2c(=O)c1CN1CCCCCC1`, the IC50 was 4200 nM. With `O=C(CC=NOCc1ccc([N+](=O)[O-])cc1)Nc1ccc(Br)cc1`, the IC50 is 1430 nM.

For the compound `Brc1cnc2nc(SCc3nc4ccccc4[nH]3)[nH]c2c1`, the IC50 was 2410 nM.

As for `CCCCCCCCCC1NC(C(=O)O)Cc2c1[nH]c1ccccc21` (centres undefined), the 50% inhibitory concentration (IC50) is 4110 nM. In the case of `Clc1ccc(-c2nnc(SCc3nc4ccccc4[nH]3)o2)c(Cl)c1` it was 604 nM. In the case of `O=C(NCc1nc2ccccc2[nH]1)C1=C[C@@H](c2ccc(Br)cc2)C[C@@H](OCc2ccc(CO)cc2)O1`, the IC50 is 1060 nM. For `O=C(NCc1nc2ccccc2[nH]1)C1=C[C@@H](c2csc3ccccc23)C[C@@H](OCCCCO)O1`, the IC50 was 2330 nM.

`O=C1[C@@H]2Cc3c([nH]c4ccccc34)C(c3cccc([N+](=O)[O-])c3)N2C(=O)CN1CCCO` (some centres undefined): the IC50 is 474 nM. In the case of `O=C(CN1CCSC1=NCc1ccccc1)c1ccc(Cl)c(Cl)c1` it was 2220 nM; in that of `O=C(Nc1ccc(F)c(Cl)c1)C1CC(=O)n2c(nc3ccccc32)N1` (centres undefined), 1590 nM; in that of `CCO[C@H]1OC(C(=O)NCc2nc3ccccc3[nH]2)=C[C@@H](c2ccc(Br)cc2)[C@@H]1CCCO`, 6240 nM.

Regarding `CC(=O)c1c[nH]c(C(=O)NCc2cccc(C(F)(F)F)c2)c1`, the IC50 is 1040 nM.

Take `CN1CC(=O)N2C(c3cccc([N+](=O)[O-])c3)c3[nH]c4ccccc4c3C[C@H]2C1=O` (some centres undefined): the concentration for half-maximal inhibition (IC50) is 338 nM. In the case of `O=C(Cn1cc(C(=O)C(=O)N2CCOCC2)c2ccccc21)Nc1cccc(C(F)(F)F)c1` it was 172 nM; in that of `O=C(NNC(=O)c1cc(-c2ccc(Cl)c(Cl)c2)nc2ccccc12)Nc1ccccc1`, 1200 nM. In the case of `O=C(NCc1nc2ccccc2[nH]1)C1=C[C@H](c2ccc(Br)cc2)C[C@H](OCc2ccc(CO)cc2)O1` it was 2400 nM; in that of `O=C1CC(N(CCc2ccccc2)C(=S)Nc2ccccc2)C(=O)N1c1ccc(Br)cc1` (centres undefined), 438 nM.
